Measurements reported in US20260262643A1, “HERBICIDAL BENZOXAZINES” (FMC CORPORATION, priority 2022, published 2026).

Experiments:
blackgrass [1] = assay: Test A postemergence; type: in vivo, Alopecurus myosuroides
Summary of the method: (§1)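 Plants were grown in loam and sand and treated preemergence or postemergence (one- to two-leaf stage, 2–10 cm) with compound in solvent plus surfactant. Response was scored against untreated controls after 10 greenhouse days, where 0 means no effect and 100 complete control.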

pigweed, palmer [2] = assay: Test A postemergence; type: in vivo, Amaranthus palmeri
Summary of the method: as §1

kochia [3] = assay: Test A postemergence; type: in vivo, Bassia scoparia
Summary of the method: as §1

sedge, umbrella = assay: Test B flooded paddy test; type: in vivo, Cyperus difformis; settings: 250 g ai/ha, Flood, 13 days, 0 to 100 scale (0 no effect, 100 complete control)
Summary of the method: (§2)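 2-leaf stage; pots flooded 3 cm over soil; compound dosed into paddy water; depth kept constant. Greenhouse, 13 d. Visual rating vs controls, 0 (no effect)–100 (complete control). Dash = no result.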

pigweed, palmer [4] = assay: Test A preemergence; type: in vivo, Amaranthus palmeri
Summary of the method: as §1

foxtail, giant [5] = assay: Test A postemergence; type: in vivo, Setaria faberi
Summary of the method: as §1

ragweed [6] = assay: Test A postemergence; type: in vivo, Ambrosia artemisiifolia
Summary of the method: as §1

horseweed = assay: Test A postemergence; type: in vivo, Erigeron canadensis
Summary of the method: as §1

ragweed [7] = assay: Test A preemergence; type: in vivo, Ambrosia artemisiifolia
Summary of the method: as §1

kochia [8] = assay: Test A preemergence; type: in vivo, Bassia scoparia
Summary of the method: as §1

soybean [9] = assay: Test A postemergence; type: in vivo, Glycine max
Summary of the method: as §1

corn [10] = assay: Test A postemergence; type: in vivo, Zea mays
Summary of the method: as §1

wheat [11] = assay: Test A postemergence; type: in vivo, Triticum aestivum
Summary of the method: as §1

goosegrass [12] = assay: Test A preemergence; type: in vivo, Eleusine indica
Summary of the method: as §1

foxtail, giant [13] = assay: Test A preemergence; type: in vivo, Setaria faberi
Summary of the method: as §1

soybean [14] = assay: Test A preemergence; type: in vivo, Glycine max
Summary of the method: as §1

ryegrass, Italian [15] = assay: Test A preemergence; type: in vivo, Lolium multiflorum
Summary of the method: as §1

goosegrass [16] = assay: Test A postemergence; type: in vivo, Eleusine indica
Summary of the method: as §1

rice = assay: Test B flooded paddy test; type: in vivo, Oryza sativa; settings: 250 g ai/ha, Flood, 13 days, 0 to 100 scale (0 no effect, 100 complete control)
Summary of the method: as §2

blackgrass [17] = assay: Test A preemergence; type: in vivo, Alopecurus myosuroides
Summary of the method: as §1

oat, wild [18] = assay: Test A preemergence; type: in vivo, Avena fatua
Summary of the method: as §1

corn [19] = assay: Test A preemergence; type: in vivo, Zea mays
Summary of the method: as §1

barnyardgrass = assay: Test B flooded paddy test; type: in vivo, Echinochloa crus-galli; settings: 250 g ai/ha, Flood, 13 days, 0 to 100 scale (0 no effect, 100 complete control)
Summary of the method: as §2

galium = assay: Test A postemergence; type: in vivo, Galium aparine
Summary of the method: as §1

wheat [20] = assay: Test A preemergence; type: in vivo, Triticum aestivum
Summary of the method: as §1

ducksalad = assay: Test B flooded paddy test; type: in vivo, Heteranthera limosa; settings: 250 g ai/ha, Flood, 13 days, 0 to 100 scale (0 no effect, 100 complete control)
Summary of the method: as §2

ryegrass, Italian [21] = assay: Test A postemergence; type: in vivo, Lolium multiflorum
Summary of the method: as §1

oat, wild [22] = assay: Test A postemergence; type: in vivo, Avena fatua
Summary of the method: as §1

[23] = 125 g ai/ha, postemergence, 10 days, visual injury, 0 to 100 scale (0 no effect, 100 complete control)
[24] = 500 g ai/ha, Postemergence, 0 to 100 scale
[25] = 125 g ai/ha, visual injury after 10 days, 0 to 100 scale, 0 is no effect, 100 is complete control
[26] = 500 g ai/ha, 0 to 100 scale (0 no effect, 100 complete control), 10 days

## Cc1cccc2c1O[C@@H](C)CN2C(=O)c1cccc(-n2cnc(C3CC3)n2)c1 [Compound 54]
Blackgrass [1]; [23]
  Plant response rating, Blackgrass: 0
Blackgrass [1]; [24]
  Plant response rating, Blackgrass: 50
pigweed, palmer [2]; [23]
  Plant response rating, Pigweed, Palmer: 50
pigweed, palmer [2]; [24]
  Plant response rating, Pigweed, Palmer: 60
Kochia [3]; [23]
  Plant response rating, Kochia: 80
Kochia [3]; [24]
  Plant response rating, Kochia: 90
sedge, umbrella
  Plant response rating, Sedge, Umbrella: 90
pigweed, palmer [4]; [25]
  Plant response rating, Pigweed, Palmer: 60
pigweed, palmer [4]; [26]
  Plant response rating, Pigweed, Palmer: 100
foxtail, giant [5]; [23]
  Plant response rating, Foxtail, Giant: 70
foxtail, giant [5]; [24]
  Plant response rating, Foxtail, Giant: 90
Ragweed [6]; [23]
  Plant response rating, Ragweed: 0
Ragweed [6]; [24]
  Plant response rating, Ragweed: 50
horseweed; [23]
  Plant response rating, Horseweed: 0
horseweed; [24]
  Plant response rating, Horseweed: 20
Ragweed [7]; [25]
  Plant response rating, Ragweed: 0
Ragweed [7]; [26]
  Plant response rating, Ragweed: 0
Kochia [8]; [25]
  Plant response rating, Kochia: 80
Kochia [8]; [26]
  Plant response rating, Kochia: 90
Soybean [9]; [23]
  Plant response rating, Soybean: 100
Soybean [9]; [24]
  Plant response rating, Soybean: 100
Corn [10]; [23]
  Plant response rating, Corn: 30
Corn [10]; [24]
  Plant response rating, Corn: 40
Wheat [11]; [23]
  Plant response rating, Wheat: 20
Wheat [11]; [24]
  Plant response rating, Wheat: 40
Goosegrass [12]; [25]
  Plant response rating, Goosegrass: 90
Goosegrass [12]; [26]
  Plant response rating, Goosegrass: 100
foxtail, giant [13]; [25]
  Plant response rating, Foxtail, Giant: 90
foxtail, giant [13]; [26]
  Plant response rating, Foxtail, Giant: 100
Soybean [14]; [25]
  Plant response rating, Soybean: 0
Soybean [14]; [26]
  Plant response rating, Soybean: 40
ryegrass, Italian [15]; [25]
  Plant response rating, Ryegrass, Italian: 70
ryegrass, Italian [15]; [26]
  Plant response rating, Ryegrass, Italian: 100
Goosegrass [16]; [23]
  Plant response rating, Goosegrass: 40
Goosegrass [16]; [24]
  Plant response rating, Goosegrass: 50
rice
  Plant response rating, Rice: 30
Blackgrass [17]; [25]
  Plant response rating, Blackgrass: 40
Blackgrass [17]; [26]
  Plant response rating, Blackgrass: 80
oat, wild [18]; [25]
  Plant response rating, Oat, Wild: 20
oat, wild [18]; [26]
  Plant response rating, Oat, Wild: 50
Corn [19]; [25]
  Plant response rating, Corn: 30
Corn [19]; [26]
  Plant response rating, Corn: 60
barnyardgrass
  Plant response rating, Barnyardgrass: 25
galium; [23]
  Plant response rating, Galium: 100
galium; [24]
  Plant response rating, Galium: 100
Wheat [20]; [25]
  Plant response rating, Wheat: 20
Wheat [20]; [26]
  Plant response rating, Wheat: 30
ducksalad
  Plant response rating, Ducksalad: 30
ryegrass, Italian [21]; [23]
  Plant response rating, Ryegrass, Italian: 30
ryegrass, Italian [21]; [24]
  Plant response rating, Ryegrass, Italian: 60
oat, wild [22]; [23]
  Plant response rating, Oat, Wild: 20
oat, wild [22]; [24]
  Plant response rating, Oat, Wild: 40

## Cc1cccc2c1O[C@@H](C)CN2C(=O)c1cccc(-n2cnc(C(C)C)n2)c1 [Compound 55]
Blackgrass [1]; [23]
  Plant response rating, Blackgrass: 60
Blackgrass [1]; [24]
  Plant response rating, Blackgrass: 80
pigweed, palmer [2]; [23]
  Plant response rating, Pigweed, Palmer: 40
pigweed, palmer [2]; [24]
  Plant response rating, Pigweed, Palmer: 60
Kochia [3]; [23]
  Plant response rating, Kochia: 80
Kochia [3]; [24]
  Plant response rating, Kochia: 90
sedge, umbrella
  Plant response rating, Sedge, Umbrella: 95
pigweed, palmer [4]; [25]
  Plant response rating, Pigweed, Palmer: 80
pigweed, palmer [4]; [26]
  Plant response rating, Pigweed, Palmer: 90
foxtail, giant [5]; [23]
  Plant response rating, Foxtail, Giant: 100
foxtail, giant [5]; [24]
  Plant response rating, Foxtail, Giant: 100
Ragweed [6]; [23]
  Plant response rating, Ragweed: 50
Ragweed [6]; [24]
  Plant response rating, Ragweed: 70
horseweed; [23]
  Plant response rating, Horseweed: 0
horseweed; [24]
  Plant response rating, Horseweed: 30
Ragweed [7]; [25]
  Plant response rating, Ragweed: 20
Ragweed [7]; [26]
  Plant response rating, Ragweed: 40
Kochia [8]; [25]
  Plant response rating, Kochia: 90
Kochia [8]; [26]
  Plant response rating, Kochia: 100
Soybean [9]; [23]
  Plant response rating, Soybean: 100
Soybean [9]; [24]
  Plant response rating, Soybean: 100
Corn [10]; [23]
  Plant response rating, Corn: 40
Corn [10]; [24]
  Plant response rating, Corn: 80
Wheat [11]; [23]
  Plant response rating, Wheat: 40
Wheat [11]; [24]
  Plant response rating, Wheat: 60
Goosegrass [12]; [25]
  Plant response rating, Goosegrass: 100
Goosegrass [12]; [26]
  Plant response rating, Goosegrass: 100
foxtail, giant [13]; [25]
  Plant response rating, Foxtail, Giant: 100
foxtail, giant [13]; [26]
  Plant response rating, Foxtail, Giant: 100
Soybean [14]; [25]
  Plant response rating, Soybean: 30
Soybean [14]; [26]
  Plant response rating, Soybean: 100
ryegrass, Italian [15]; [25]
  Plant response rating, Ryegrass, Italian: 80
ryegrass, Italian [15]; [26]
  Plant response rating, Ryegrass, Italian: 100
Goosegrass [16]; [23]
  Plant response rating, Goosegrass: 50
Goosegrass [16]; [24]
  Plant response rating, Goosegrass: 90
rice
  Plant response rating, Rice: 0
Blackgrass [17]; [25]
  Plant response rating, Blackgrass: 80
Blackgrass [17]; [26]
  Plant response rating, Blackgrass: 90
oat, wild [18]; [25]
  Plant response rating, Oat, Wild: 70
oat, wild [18]; [26]
  Plant response rating, Oat, Wild: 90
Corn [19]; [25]
  Plant response rating, Corn: 0
Corn [19]; [26]
  Plant response rating, Corn: 30
barnyardgrass
  Plant response rating, Barnyardgrass: 30
galium; [23]
  Plant response rating, Galium: 100
galium; [24]
  Plant response rating, Galium: 100
Wheat [20]; [25]
  Plant response rating, Wheat: 40
Wheat [20]; [26]
  Plant response rating, Wheat: 60
ducksalad
  Plant response rating, Ducksalad: 75
ryegrass, Italian [21]; [23]
  Plant response rating, Ryegrass, Italian: 50
ryegrass, Italian [21]; [24]
  Plant response rating, Ryegrass, Italian: 100
oat, wild [22]; [23]
  Plant response rating, Oat, Wild: 40
oat, wild [22]; [24]
  Plant response rating, Oat, Wild: 80
